How the values were obtained:
Test in all cases: Competitive isoTOP-ABPP in situ (fragment-treated cells)
Type in all cases: cell-based
[1] = molecular target: T1, cysteines in MDA-MB-231 and Ramos cells (Homo sapiens, UniProt P25205)
T1 sequence (P25205 1-808): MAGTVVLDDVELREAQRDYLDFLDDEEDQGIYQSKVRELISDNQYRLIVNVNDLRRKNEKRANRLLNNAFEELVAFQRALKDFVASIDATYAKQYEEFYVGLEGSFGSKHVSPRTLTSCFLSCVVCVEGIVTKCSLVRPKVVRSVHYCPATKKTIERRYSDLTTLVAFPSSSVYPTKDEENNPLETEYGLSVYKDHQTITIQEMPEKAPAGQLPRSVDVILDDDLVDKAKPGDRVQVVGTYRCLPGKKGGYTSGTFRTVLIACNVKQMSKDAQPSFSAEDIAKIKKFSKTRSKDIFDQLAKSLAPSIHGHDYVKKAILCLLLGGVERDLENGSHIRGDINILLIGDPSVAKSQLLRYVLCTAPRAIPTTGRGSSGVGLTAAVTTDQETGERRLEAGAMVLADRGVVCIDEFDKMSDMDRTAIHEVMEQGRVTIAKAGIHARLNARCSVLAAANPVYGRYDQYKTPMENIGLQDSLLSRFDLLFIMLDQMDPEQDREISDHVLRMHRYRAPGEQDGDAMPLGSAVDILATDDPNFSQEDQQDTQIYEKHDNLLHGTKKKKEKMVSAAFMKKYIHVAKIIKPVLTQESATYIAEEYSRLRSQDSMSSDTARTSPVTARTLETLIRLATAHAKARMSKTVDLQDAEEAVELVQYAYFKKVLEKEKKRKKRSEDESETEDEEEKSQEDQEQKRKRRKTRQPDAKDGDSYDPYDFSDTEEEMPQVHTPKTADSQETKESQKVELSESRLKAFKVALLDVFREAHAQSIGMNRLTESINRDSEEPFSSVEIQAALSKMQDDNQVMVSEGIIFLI

[2] = molecular target: T2, cysteines in MDA-MB-231 and Ramos cells (Homo sapiens, UniProt Q13428)
T2 sequence (Q13428 1-1488): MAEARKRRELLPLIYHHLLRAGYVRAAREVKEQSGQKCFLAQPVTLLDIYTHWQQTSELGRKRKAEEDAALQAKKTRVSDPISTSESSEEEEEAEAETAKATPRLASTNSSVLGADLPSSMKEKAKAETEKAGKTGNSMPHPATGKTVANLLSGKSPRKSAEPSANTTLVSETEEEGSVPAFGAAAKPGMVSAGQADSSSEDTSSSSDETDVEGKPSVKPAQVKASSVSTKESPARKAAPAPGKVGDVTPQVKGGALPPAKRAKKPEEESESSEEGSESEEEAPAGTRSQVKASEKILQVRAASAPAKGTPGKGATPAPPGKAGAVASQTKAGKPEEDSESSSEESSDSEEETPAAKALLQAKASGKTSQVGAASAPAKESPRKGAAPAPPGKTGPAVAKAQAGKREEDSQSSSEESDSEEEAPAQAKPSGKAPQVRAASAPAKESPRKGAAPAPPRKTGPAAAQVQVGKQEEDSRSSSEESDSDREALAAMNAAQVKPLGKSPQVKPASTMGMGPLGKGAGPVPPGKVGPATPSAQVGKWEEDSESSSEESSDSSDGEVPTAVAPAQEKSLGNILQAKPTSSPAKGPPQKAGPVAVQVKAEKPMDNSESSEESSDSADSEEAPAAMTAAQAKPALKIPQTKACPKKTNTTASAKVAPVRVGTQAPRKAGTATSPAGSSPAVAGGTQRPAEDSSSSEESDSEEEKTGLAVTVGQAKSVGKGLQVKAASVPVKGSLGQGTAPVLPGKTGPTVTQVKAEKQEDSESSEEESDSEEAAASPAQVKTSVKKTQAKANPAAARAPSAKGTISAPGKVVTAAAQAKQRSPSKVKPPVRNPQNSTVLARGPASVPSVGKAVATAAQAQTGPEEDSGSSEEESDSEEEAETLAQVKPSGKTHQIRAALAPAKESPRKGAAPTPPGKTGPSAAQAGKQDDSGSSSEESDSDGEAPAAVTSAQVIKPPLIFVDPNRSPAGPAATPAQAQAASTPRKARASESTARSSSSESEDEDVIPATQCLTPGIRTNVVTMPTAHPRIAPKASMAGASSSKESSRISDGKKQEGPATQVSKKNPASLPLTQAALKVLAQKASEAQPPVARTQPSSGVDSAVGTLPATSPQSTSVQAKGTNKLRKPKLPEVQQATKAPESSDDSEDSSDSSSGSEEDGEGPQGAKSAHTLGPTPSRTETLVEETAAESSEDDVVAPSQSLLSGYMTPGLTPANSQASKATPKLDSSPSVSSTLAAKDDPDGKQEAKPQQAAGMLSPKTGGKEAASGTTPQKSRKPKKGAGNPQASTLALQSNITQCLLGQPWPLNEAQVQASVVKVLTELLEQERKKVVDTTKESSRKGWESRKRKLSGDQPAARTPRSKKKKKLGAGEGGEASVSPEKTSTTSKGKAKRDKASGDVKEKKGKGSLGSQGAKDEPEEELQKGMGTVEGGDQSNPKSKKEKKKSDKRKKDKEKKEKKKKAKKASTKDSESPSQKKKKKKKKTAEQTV

[3] = molecular target: T3, cysteines in MDA-MB-231 and Ramos cells (Homo sapiens, UniProt O14879)
T3 sequence (O14879 1-490): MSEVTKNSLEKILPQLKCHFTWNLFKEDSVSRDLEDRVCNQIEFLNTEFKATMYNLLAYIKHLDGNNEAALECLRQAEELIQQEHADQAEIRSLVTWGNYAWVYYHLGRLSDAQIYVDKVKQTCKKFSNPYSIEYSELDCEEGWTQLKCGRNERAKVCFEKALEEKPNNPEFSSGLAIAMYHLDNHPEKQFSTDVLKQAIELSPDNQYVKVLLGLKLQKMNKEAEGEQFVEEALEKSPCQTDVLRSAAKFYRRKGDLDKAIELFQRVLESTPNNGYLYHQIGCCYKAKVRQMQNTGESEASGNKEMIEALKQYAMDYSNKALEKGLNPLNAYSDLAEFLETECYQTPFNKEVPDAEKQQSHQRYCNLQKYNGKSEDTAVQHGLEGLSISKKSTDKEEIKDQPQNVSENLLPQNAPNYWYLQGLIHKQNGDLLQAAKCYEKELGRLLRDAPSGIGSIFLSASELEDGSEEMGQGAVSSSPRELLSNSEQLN

[4] = molecular target: cysteines in MDA-MB-231 and Ramos cells (Homo sapiens, UniProt Q15365)
Chain of cysteines in MDA-MB-231 and Ramos cells (Homo sapiens, UniProt Q15365) (Q15365 whole entry): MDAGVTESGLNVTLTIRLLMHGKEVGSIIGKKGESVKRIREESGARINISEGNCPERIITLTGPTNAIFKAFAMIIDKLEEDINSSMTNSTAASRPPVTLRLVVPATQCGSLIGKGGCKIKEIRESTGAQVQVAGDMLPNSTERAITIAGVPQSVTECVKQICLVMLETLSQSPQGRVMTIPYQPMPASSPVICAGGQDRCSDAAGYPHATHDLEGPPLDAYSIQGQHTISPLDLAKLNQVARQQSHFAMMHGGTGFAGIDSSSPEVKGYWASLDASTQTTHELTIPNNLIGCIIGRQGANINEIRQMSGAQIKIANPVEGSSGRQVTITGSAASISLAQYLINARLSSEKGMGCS

SMILES	isoTOP-ABPP ratio P25205_C119 ([1]; 200 μM, insitu, 231)	isoTOP-ABPP ratio Q13428_C38 ([2]; 200 μM, insitu, 231)	isoTOP-ABPP ratio Q13428_C1298 ([2]; 200 μM, insitu, 231)	isoTOP-ABPP ratio O14879_C343 ([3]; 200 μM, insitu, 231)	isoTOP-ABPP ratio Q15365_C194 ([4]; 200 μM, insitu, 231)	other results
CC(C)CCOCCNC(=O)CCl [compound 27]	1.0	1.3	1.0	0.4	0.5	–
COc1cc2c(cc1OC)CN(C(=O)CCl)CC2 [compound 8]	–	–	–	–	–	isoTOP-ABPP reactivity P25205_C119 MCM3 ([1]; 200 μM, insitu, 231): 3.5; isoTOP-ABPP reactivity Q13428_C38 TCOF1 ([2]; 200 μM, insitu, 231): 2.0; isoTOP-ABPP reactivity Q13428_C1298 TCOF1 ([2]; 200 μM, insitu, 231): 20.0; isoTOP-ABPP reactivity O14879_C343 IFIT3 ([3]; 200 μM, insitu, 231): 2.1; isoTOP-ABPP reactivity Q15365_C194 PCBP1 ([4]; 200 μM, insitu, 231): 1.4
COc1ccc(C2CC(c3cccs3)=NN2C(=O)CCl)cc1 (stereo not drawn) [compound 4]	–	–	–	–	–	isoTOP-ABPP reactivity P25205_C119 MCM3 ([1]; 100 μM in situ 231): 4.3; isoTOP-ABPP reactivity Q13428_C38 TCOF1 ([2]; 100 μM in situ 231): 2.8; isoTOP-ABPP reactivity Q13428_C1298 TCOF1 ([2]; 100 μM in situ 231): 5.6; isoTOP-ABPP reactivity O14879_C343 IFIT3 ([3]; 100 μM in situ 231): 6.6; isoTOP-ABPP reactivity Q15365_C194 PCBP1 ([4]; 100 μM in situ 231): 1.4
O=C(CCl)Nc1cccc2ncccc12 [compound 51]	2.6	1.1	–	1.3	0.6	–
COc1ccccc1OCCNC(=O)CCl [compound 28]	–	1.0	0.9	0.7	–	–
O=C(CCl)N1CCN(S(=O)(=O)c2ccccc2F)CC1 [compound 10]	2.3	4.2	5.9	4.9	1.6	isoTOP-ABPP ratio Q15365_C194 ([4]; 200 μM, insitu, ramos): 2.0
CC1CCc2ccccc2N1C(=O)CCl (stereo not drawn) [compound 45]	6.2	2.8	4.7	4.0	1.5	–
Cc1ccc(C=C(C#N)C(=O)NCCN2CCOCC2)cc1 [compound 41]	0.9	1.1	1.0	0.3	0.3	–
COc1ccc2c(c1)CCCN2C(=O)CCl [compound 2]	–	–	–	–	–	isoTOP-ABPP reactivity P25205_C119 MCM3 ([1]; 200 μM, insitu, 231): 3.5; isoTOP-ABPP reactivity Q13428_C38 TCOF1 ([2]; 200 μM, insitu, 231): 3.3; isoTOP-ABPP reactivity Q13428_C1298 TCOF1 ([2]; 200 μM, insitu, 231): 4.7; isoTOP-ABPP reactivity O14879_C343 IFIT3 ([3]; 200 μM, insitu, 231): 7.6; isoTOP-ABPP reactivity Q15365_C194 PCBP1 ([4]; 200 μM, insitu, 231): 5.1
C=CC(=O)Nc1cc(F)c(N2CCN(C(=O)OC(C)(C)C)CC2)c(F)c1 [compound 38]	0.9	1.1	2.0	–	15	–
O=C(CCl)NC(=O)NC12CC3CC(CC(C3)C1)C2 [compound 12]	1.0	4.7	20.0	3.5	1.3	–
C=CC(=O)N(Cc1cccnc1)c1cc(C(F)(F)F)cc(C(F)(F)F)c1 [compound 31]	0.5	–	–	0.9	0.7	isoTOP-ABPP ratio Q13428_C1298 ([2]; 200 μM, insitu, ramos): 2.2; isoTOP-ABPP ratio Q15365_C194 ([4]; 200 μM, insitu, ramos): 1.6
Cn1cc(S(=O)(=O)N2CCOCC2)cc1C(=O)NC(=O)CCl [compound 11]	–	–	–	–	–	isoTOP-ABPP ratio P25205_C119 ([1]; 100 μM in situ 231): 0.7; isoTOP-ABPP ratio Q13428_C38 ([2]; 100 μM in situ 231): 1.1; isoTOP-ABPP ratio Q13428_C1298 ([2]; 100 μM in situ 231): 0.8; isoTOP-ABPP ratio O14879_C343 ([3]; 100 μM in situ 231): 0.4; isoTOP-ABPP ratio Q15365_C194 ([4]; 100 μM in situ 231): 0.4
O=C(CCl)NCCc1c[nH]c2ccccc12 [compound 13]	1.1	1.6	–	1.0	0.9	isoTOP-ABPP ratio P25205_C119 ([1]; 200 μM, insitu, ramos): 1.3; isoTOP-ABPP ratio Q15365_C194 ([4]; 200 μM, insitu, ramos): 1.4
O=C(CCl)N1CCN(CC(=O)N2CCOCC2)CC1 [compound 29]	–	–	–	–	–	isoTOP-ABPP ratio P25205_C119 ([1]; 200 μM, insitu, ramos): 1.3; isoTOP-ABPP ratio Q13428_C38 ([2]; 200 μM, insitu, ramos): 1.5; isoTOP-ABPP ratio Q15365_C194 ([4]; 200 μM, insitu, ramos): 1.0
O=C(CCl)NC12CC3CC(CC(C3)C1)C2 [compound 21]	1.1	1.5	–	0.8	1.1	–
O=C(CCl)N1CCC(Cc2ccccc2)CC1 [compound 9]	–	–	–	–	–	isoTOP-ABPP reactivity P25205_C119 MCM3 ([1]; 200 μM, insitu, 231): 1.9; isoTOP-ABPP reactivity O14879_C343 IFIT3 ([3]; 200 μM, insitu, 231): 17.2; isoTOP-ABPP reactivity Q15365_C194 PCBP1 ([4]; 200 μM, insitu, 231): 10.1
